# Literature values, collected in patent US7333894B2, “Methods for the diagnosis of hemodialysis patients and utilization of such methods to improve the administration of intravenous levocarnitine treatments to hemodialysis patients” (Sigma-Tau Pharmaceuticals, Inc., priority 2002, dated 2008).
# Assays:
# [1] = hemodialysis patient, one dialysis session
# [2] = intravenous administration at the end of a dialysis session, ESRD patients
smiles,measurement,setting,value
"C[N+](C)(C)C[C@H](O)CC(=O)[O-] [carnitine, levocarnitine]",carnitine present in the plasma removed during a dialysis session,[1],more than 70%
same,time for plasma carnitine levels to return to pre-dialysis baseline levels,[2],10 to 24 h
